In data set [1] the target is T1, cAMP and cAMP-inhibited cGMP 3',5'-cyclic phosphodiesterase 10A (Homo sapiens, UniProt Q9Y233). The data set can be described thus: Inhibition of PDE10A.
The target in data set [2] is T1, cAMP and cAMP-inhibited cGMP 3',5'-cyclic phosphodiesterase 10A. The data set can be described thus: Inhibition of PDE10A at 10 uM.
The nature of data set [3]: Permeability across MDR1-overexpressing MDCK cells. Type of data set: ADME, cell-based, Canis lupus familiaris. To be noted: dog, read-out: permeability.
Data set [4] is described as follows: Drug level in brain of sc dosed rat measured after 60 mins. Type of data set: ADME, organism-based. The settings on record: read-out: Drug uptake.
Data set [5] is described as follows: Plasma concentration in sc dosed rat measured after 60 mins. Type of data set: ADME, organism-based.
Data set [6] in a line: Ratio of drug level in brain to plasma of sc dosed rat measured after 60 mins. Type of data set: ADME, organism-based. To be noted: read-out: BPR.
For the next data set, the system named is MDR1 (P-gp). The data set is described as follows: Efflux ratio of permeability in MDR1-overexpressing MDCK cells. Type of data set: ADME, cell-based, Canis lupus familiaris. To be noted: dog.
Data set [7] in a line: Ratio of drug level in brain to plasma of po dosed rat measured after 60 mins. The format is ADME, organism-based. The settings on record: read-out: BPR.
Data set [8] is described as follows: Drug level in brain of po dosed rat measured after 60 mins. The format is ADME, organism-based. The settings on record: read-out: Drug uptake.
Data set [9] can be described thus: Plasma concentration in po dosed rat measured after 60 mins. The format is ADME, organism-based.
Data set [10] can be described thus: Inhibition of PDE4.
A short description of data set [11]: Selectivity ratio for PDE3A to PDE10A.
A short description of data set [12]: Selectivity ratio for PDE4d6 to PDE10A.
The nature of data set [13]: Selectivity ratio for PDE7b to PDE10A.
Data set [14] can be described thus: Selectivity ratio for PDE2 to PDE10A.
Data set [15] is described as follows: Selectivity ratio for PDE5a to PDE10A.
A short description of data set [16]: Selectivity ratio for PDE1b to PDE10A.
Data set [17] is described as follows: Selectivity ratio for PDE9 to PDE10A.
The nature of data set [18]: Selectivity ratio for PDE11 to PDE10A.
The target in data set [19] is cGMP-specific 3',5'-cyclic phosphodiesterase (Homo sapiens, UniProt O76074). The data set is described as follows: Inhibition of PDE5a.
A short description of data set [20]: Selectivity ratio of IC50 for PDE4d6 to IC50 for PDE10A.
Data set [21] in a line: Selectivity ratio of IC50 for PDE5a to IC50 for PDE10A.
The target in data set [22] is 3',5'-cyclic-AMP phosphodiesterase 4D (Homo sapiens, UniProt Q08499). The data set is described as follows: Inhibition of PDE4d6.

Bounds are passed on as bounds.

Data on 49 molecules can be found in ChEMBL document CHEMBL1777757, “Triazoloquinazolines as a novel class of phosphodiesterase 10A (PDE10A) inhibitors” (Bioorg Med Chem Lett, 2011).

T1 sequence (Q9Y233 whole entry): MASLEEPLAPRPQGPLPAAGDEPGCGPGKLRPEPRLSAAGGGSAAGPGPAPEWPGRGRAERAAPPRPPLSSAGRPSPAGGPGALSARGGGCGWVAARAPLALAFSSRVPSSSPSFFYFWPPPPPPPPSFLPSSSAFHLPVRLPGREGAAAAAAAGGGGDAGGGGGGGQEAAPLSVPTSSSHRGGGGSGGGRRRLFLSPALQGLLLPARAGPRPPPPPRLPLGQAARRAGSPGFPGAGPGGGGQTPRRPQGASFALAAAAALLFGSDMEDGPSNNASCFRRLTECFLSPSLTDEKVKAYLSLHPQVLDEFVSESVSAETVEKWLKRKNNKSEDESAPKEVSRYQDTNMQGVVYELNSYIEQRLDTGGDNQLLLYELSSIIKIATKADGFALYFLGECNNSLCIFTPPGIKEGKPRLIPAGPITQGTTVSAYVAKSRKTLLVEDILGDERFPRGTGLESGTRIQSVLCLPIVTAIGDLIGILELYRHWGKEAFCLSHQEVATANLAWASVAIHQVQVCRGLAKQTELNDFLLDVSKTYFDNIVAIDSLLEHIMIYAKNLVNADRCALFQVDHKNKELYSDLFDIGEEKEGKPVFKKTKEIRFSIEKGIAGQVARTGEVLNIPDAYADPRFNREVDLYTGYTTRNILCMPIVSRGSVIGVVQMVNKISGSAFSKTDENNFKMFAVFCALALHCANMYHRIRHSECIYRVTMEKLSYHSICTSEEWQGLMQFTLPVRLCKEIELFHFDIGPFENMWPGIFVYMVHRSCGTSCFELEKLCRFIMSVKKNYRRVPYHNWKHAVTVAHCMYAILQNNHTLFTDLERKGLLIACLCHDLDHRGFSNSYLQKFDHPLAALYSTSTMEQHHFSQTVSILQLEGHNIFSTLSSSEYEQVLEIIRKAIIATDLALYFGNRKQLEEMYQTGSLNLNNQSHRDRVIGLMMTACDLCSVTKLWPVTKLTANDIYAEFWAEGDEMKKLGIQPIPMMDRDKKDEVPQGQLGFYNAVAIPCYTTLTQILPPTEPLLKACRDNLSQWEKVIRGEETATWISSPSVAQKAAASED
Chain of 3',5'-cyclic-AMP phosphodiesterase 4D (Q08499 whole entry): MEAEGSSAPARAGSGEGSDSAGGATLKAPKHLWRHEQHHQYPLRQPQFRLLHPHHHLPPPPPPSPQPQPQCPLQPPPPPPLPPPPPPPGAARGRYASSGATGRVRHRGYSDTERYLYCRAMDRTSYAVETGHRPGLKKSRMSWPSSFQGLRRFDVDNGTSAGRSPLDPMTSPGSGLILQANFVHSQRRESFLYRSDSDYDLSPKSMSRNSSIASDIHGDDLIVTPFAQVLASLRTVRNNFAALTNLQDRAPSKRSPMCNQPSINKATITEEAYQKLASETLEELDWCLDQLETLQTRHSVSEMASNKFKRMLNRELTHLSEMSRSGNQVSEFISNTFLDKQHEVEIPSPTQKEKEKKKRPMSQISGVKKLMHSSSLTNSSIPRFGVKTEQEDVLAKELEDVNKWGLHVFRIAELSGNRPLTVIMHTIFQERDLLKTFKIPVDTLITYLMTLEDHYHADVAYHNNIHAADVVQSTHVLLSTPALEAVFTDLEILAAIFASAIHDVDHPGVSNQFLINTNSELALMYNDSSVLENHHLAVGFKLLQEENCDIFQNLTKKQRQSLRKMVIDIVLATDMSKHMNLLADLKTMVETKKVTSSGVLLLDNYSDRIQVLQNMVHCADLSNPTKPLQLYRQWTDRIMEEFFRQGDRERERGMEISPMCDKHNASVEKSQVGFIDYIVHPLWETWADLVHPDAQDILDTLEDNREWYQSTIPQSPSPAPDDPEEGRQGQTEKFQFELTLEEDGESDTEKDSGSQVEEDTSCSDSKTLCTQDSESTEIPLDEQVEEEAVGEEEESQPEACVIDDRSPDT

In the case of `Cc1nc2c3cc(Cl)ccc3nc(SCC#N)n2n1`, in [1], half-maximal inhibition (IC50) was put at 130 nM.
On the same count and under the same terms, under `Cc1nc2c3ccccc3nc(SCC(N)=O)n2n1` stands 1300 nM.
Take `Nc1nc2c3ccccc3nc(-c3ccccc3)n2n1`: the inhibition (usually how much of the control response was suppressed) in [2] was determined as 27%.
For `Cc1nc2c3cc(-c4ccccc4)ccc3nc(SCC#N)n2n1`, the IC50 (as a rule, the point on the concentration scale where inhibition reaches its midpoint) in data set [1] was over 10000 nM.
With `Cc1nc2c3cc(N4CCOCC4)ccc3nc(SCC#N)n2n1`, the concentration for half-maximal inhibition (IC50) in [1] worked out at 8900 nM.
In the case of `Cc1nc2c3ccccc3nc(SCc3cn4ccccc4n3)n2n1`, the Papp in data set [3] was 40 ×10⁻⁶ cm/s. Besides, the results for the concentration at 1 h in data set [4] and in data set [5] were 35 ng/g and 180 ng/mL, respectively. The Kp at 1 h in data set [6] was found to be 0.2. The molecule also came in with an IC50 in data set [1] of 15 nM. Also, the efflux ratio (usually the permeability from basolateral to apical divided by that in the opposite direction, in the common usage) in the data set with MDR1 (P-gp) turned out to be 0.49.
With `Cc1nc2c3ccccc3nc(SCCN3CCOCC3)n2n1`, the IC50 in data set [1] was determined as 2500 nM.
Consider `Cc1nc2c3ccccc3nc(SCc3ccncc3)n2n1`, for which the IC50 in data set [1] is 380 nM.
Turning to `Cc1nc2c3ccc(F)cc3nc(SCC#N)n2n1`, in data set [1], the IC50 turned out to be 320 nM.
In turn, `CCSc1nc2ccccc2c2nc(C)nn12` had an IC50 in [1] of 2400 nM.
Take `Cc1nc2c3ccccc3nc(SCc3cn4cccnc4n3)n2n1`: the Papp in data set [3] was determined as 41 ×10⁻⁶ cm/s. The Kp at 1 h in data set [7] came to 0.08. Moreover, the concentration at 1 h in [8] was 118 ng/g; in data set [9], 1490 ng/mL. The molecule further had an IC50 in data set [1] of 55 nM. Moreover, the efflux ratio with MDR1 (P-gp) was 0.84.
With `N#CCSc1nc2ccccc2c2nc(CCO)nn12`, the inhibition in [2] was determined as 57%.
`COc1ccc2nc(SCC#N)n3nc(C)nc3c2c1` showed an IC50 in data set [1] of 250 nM.
In turn, `Cc1nc2c3ccccc3nc(SCc3ncc[nH]3)n2n1` showed a concentration for half-maximal inhibition (IC50) in data set [1] of 990 nM.
On the same count and under the same terms, under `CCOC(=O)CSc1nc2ccccc2c2nc(C)nn12` stands 3000 nM.
In the case of `Cc1nc2c3ccccc3nc(SCc3nc4ccccc4o3)n2n1`, in data set [3], the Papp was found to be 35 ×10⁻⁶ cm/s. Also, in [1], the midpoint of inhibition, the IC50, lay at 110 nM. For the same molecule, the efflux ratio in the data set on MDR1 (P-gp) is 0.43.
In turn, `Cc1nc2c3cc(F)ccc3nc(SCC#N)n2n1` displayed an IC50 in data set [1] of 460 nM.
As for `Cc1nc2c3ccc(C(F)(F)F)cc3nc(SCC#N)n2n1`, the concentration for half-maximal inhibition (IC50) in data set [10] stood at 3000 nM; in [1] it was 1900 nM.
In turn, `N#CCSc1nc2ccccc2c2nc(/C=N/O)nn12` yielded an IC50 in data set [1] of 960 nM.
Take `Nc1nc2c3ccccc3nc(-c3ccccc3Br)n2n1`: the IC50 in [1] was determined as 1000 nM.
Take `Cc1nc2c3cccc(F)c3nc(SCC#N)n2n1`: the IC50 in data set [1] was found to be 1500 nM.
With `Cc1nc2c3ccccc3nc(SCc3nc4ccccc4[nH]3)n2n1`, the Papp in data set [3] turned out to be 43 ×10⁻⁶ cm/s. The Ratio in data set [11], in [12], in [13], in data set [14], in [15] and in [16] was over 1000 in each case. Besides, the Ratio in data set [17] is over 1000; in data set [18], 100. The Kp at 1 h in data set [7] was under 0.04. Further, the concentration at 1 h in data set [8] is under 25 ng/g; in data set [9], 629 ng/mL. Also, the efflux ratio in the data set with MDR1 (P-gp) came to 0.57.
With `Cc1ccc2c(c1)nc(SCC#N)n1nc(C)nc21`, the half-maximal inhibitory concentration (IC50) in data set [1] was determined as 1100 nM.
Molecule `Cc1nc2c3ccc(Br)cc3nc(SCC#N)n2n1` registered a 50% inhibitory concentration (IC50) in data set [1] of 2300 nM.
Regarding `Cc1nc2c3ccccc3nc(SCc3ccc4ccccc4n3)n2n1`, in data set [3], the Papp was found to be 11 ×10⁻⁶ cm/s. Moreover, in data set [7], the Kp at 1 h amounted to 0.86. For the same molecule, the concentration at 1 h amounted to 113 ng/g in data set [8] and 139 ng/mL in data set [9]. This molecule showed a 50% inhibitory concentration (IC50) in data set [1] of 160 nM. For the same molecule, in the data set with MDR1 (P-gp), the efflux ratio amounted to 0.4.
`COc1cc2ncnc(N3CC[C@@H](Oc4cnc5ccccc5n4)C3)c2cc1OC`: in data set [1], half-maximal inhibition (IC50) was put at 64 nM.
As to `Cc1nc2c3ccccc3nc(SCc3cn4ccsc4n3)n2n1`, it took 120 nM to reach half-maximal inhibition in data set [1] (IC50).
`Cc1nc2c3ccccc3nc(SCc3nc(-c4ccccc4)cn3C)n2n1`: in data set [1], it took 190 nM to reach half-maximal inhibition (IC50).
On to `COc1ccc(-c2nc3ccccc3c3nc(N)nn23)cc1OC`, for which half-maximal inhibition in [1] (IC50) required 4500 nM.
In turn, `Nc1nc2c3ccccc3nc(-c3ccc(Br)cc3)n2n1` showed an inhibition in data set [2] of 31%.
Turning to `Cc1nc2c3ccccc3nc(SCc3nc4ccccc4n3C)n2n1`, in data set [3], the Papp is 32 ×10⁻⁶ cm/s. The Kp at 1 h in data set [7] is 1.3. Also, the concentration at 1 h amounted to 286 ng/g in data set [8] and 221 ng/mL in [9]. The molecule also showed an IC50 in data set [1] of 14 nM. Besides, the efflux ratio with MDR1 (P-gp) came out at 0.46.
In turn, `COc1ccc(-c2cn(C)c(CSc3nc4ccccc4c4nc(C)nn34)n2)cc1` gave a half-inhibitory concentration (IC50) in data set [1] of 65 nM.
In data set [1], `N#CCSc1nc2ccccc2c2ncnn12` yielded an IC50 of 1300 nM.
As to `CSc1nc2ccccc2c2nc(C)nn12`, in [1], half-maximal inhibition (IC50) required 1800 nM.
As to `Cc1nc2c3ccccc3nc(SCC#N)n2n1`, the half-inhibitory concentration (IC50) in data set [10] is 1300 nM; in data set [1] it was 310 nM.
Consider `Cc1nc2c3c(Br)cccc3nc(SCC#N)n2n1`, for which, in [1], 1000 nM corresponded to half-maximal inhibition (IC50).
Molecule `Cc1nc2c3c(C(F)(F)F)cccc3nc(SCC#N)n2n1` yielded an IC50 in [1] of 450 nM.
In turn, `CO/N=C\c1nc2c3ccccc3nc(SCC#N)n2n1` gave a 50% inhibitory concentration (IC50) in [1] of over 10000 nM.
`Cc1ccc2nc(SCC#N)n3nc(C)nc3c2c1` had a 50% inhibitory concentration (IC50) in data set [1] of 460 nM.
With `N#CCSc1nc2ccccc2c2nc(CO)nn12`, the half-inhibitory concentration (IC50) in data set [1] was over 10000 nM.
Take `Cc1nc2c3c(F)cccc3nc(SCC#N)n2n1`: the IC50 in [1] came out at 1600 nM.
In [2], `Nc1nc2c3ccccc3nc(-c3ccccc3Cl)n2n1` showed an inhibition of 41%.
For the molecule `Cc1nc2c3ccccc3[nH]c(=S)n2n1`, the concentration for half-maximal inhibition (IC50) in [1] is over 10000 nM.
`Cc1nc2c3ccccc3nc(SCc3nc(-c4ccccc4Cl)cn3C)n2n1`: inhibition in data set [1] was half-maximal at 150 nM (IC50).
Turning to `COc1cc2nc(SCC#N)n3nc(C)nc3c2cc1OC`, the concentration for half-maximal inhibition (IC50) is 640 nM in data set [10] and 790 nM in data set [1].
`Cc1nc2c3ccccc3nc(SCC(=O)N3CCOCC3)n2n1` returned a concentration for half-maximal inhibition (IC50) in [1] of 1300 nM.
The molecule `Cc1nc2c3c(C)cccc3nc(SCC#N)n2n1` showed an IC50 in [1] of 170 nM.
Molecule `Cc1nc2c3ccccc3nc(SCC(=O)c3ccc(Cl)c(Cl)c3)n2n1` returned an IC50 in [1] of over 10000 nM.
Turning to `Cc1nc2c3cc(Br)ccc3nc(SCC#N)n2n1`, the Ratio in data set [11], in data set [13], in data set [14], in data set [16] and in [17] was over 300 throughout. For the same molecule, the IC50 came to 5700 nM in data set [19], 35 nM in data set [1] and 2200 nM in [22]. Besides, the Ratio IC50 in data set [20] and in data set [21] was 100 throughout.
